Legend:
[1] = Intranasal PZ6005 in diet-induced obese mice: body weight, tissue mass and fat mass; assay type: in vivo, mouse
Experimental: Metabolic measurements were undertaken in the Melbourne Mouse Metabolic Phenotyping Platform (The University of Melbourne, Australia). Glucose tolerance tests were performed on 6 h fasted conscious mice respectively by injecting D-glucose (2 mg/g of lean body mass and 1 mg/g lean mass for db/db and HFHS+STZ mice) into the peritoneal cavity and measuring glucose in tail blood immediately before and at 15, 30, 45, 60, 90 and 120 min after injection using an Accu-Check glucometer (Roche, Germany). The areas under glucose excursion curves were determined and expressed as mmol/1×min. Fasted (12 h fast) plasma insulin or glucose levels were determined using a Rat/Mouse Insulin ELISA (EZRMI-13K, Merck Millipore, CA) or an Accu-Check glucometer respectively. The HOMA-IR was calculated using the equation [(glucose×insulin)/405]. Adiposity was measured using TD-NMR minispec (Bruker Optics Inc., Billerica, MA).
Conscious mice were restrained by scruffing and inverted parallel to the floor with the chin at ˜180-degree angle with the neck. Using a 10 μL tip, a pipettor was loaded with 5 μl of vehicle (ddH2O) or fluorosamine (1 mg/animal in 20 μl or 5 mg/animal in 20 μl). The tip of the filled pipettor was placed near the left nostril at a 45-degree angle, and the drug was ejected to form a small 5 μl droplet at tip for the mouse to inhale. Immediately after the mouse inhaled the first droplet the remaining solution was ejected to form another small droplet for the mouse to inhale through the same nostril. The mouse was held in this position for 15 seconds before the procedure was repeated in the right nostril. The mouse was returned to the cage for 2 minutes and the process was repeated so that each mouse received four droplets of 5 μl each, delivering a total of 20 μl of solution. All drugs were administered delivered approximately 1 h before lights off […].
Changes in body weight of 12-week-HFHS-diet-fed obese mice during 14 days of intranasal administration of either vehicle or PZ6005 (1 or 5 mg/animal/day). Intranasal PZ6005 treatment induce weight loss in a dose-dependent manner, as assessed by significant differences in weight changes across groups. […] At the end of the experiment, mice in the highest dose of PZ6005 treatment had lost […] and those in the 1 mg treatment had lost […], whereas control littermates maintained at 3.57±1.28% of body weight (FIG. 10a).
To determine the influence of intranasal PZ6005-mediated attenuated neurofibrosis on tissue-specific adiposity and body composition, peripheral tissues and fat mass of the mice were weighed following the 14-day administration. […] Moreover, the reduction in overall fat mass depended upon the doses of PZ6005.

[2] = I.C.V. fluorosamine: hyperinsulinemic-euglycemic clamps in weight matched obese mice; assay type: in vivo, mouse; details: I.C.V. daily for 3 days
Experimental: For hyperinsulinemic-euglycemic clamps, mice were anesthetised under isoflurane and the right jugular vein was catheterised for infusions, as described previously by Dodd et al., 2018. Catheters were attached to an implant button (BMSW25, RWD Life Sciences, Shenzhen, China). Implant buttons were capped allowing for group mousing of mice and catheters were kept patent by flushing daily with 40 μL saline containing 200 units/mL heparin. On the day of the experiment, food was removed at 7:00 A.M. After 3.5 h fasting, a primed (1 min, 1.25 uCi/min) continuous infusion (0.05 uCi/min) of [3-3H]glucose (NET331A001MC, PerkinElmer, MA) was administered to measure whole-body glucose turnover, as described previously by Dodd et al., 2018. 90 minutes later, mice received a 40 mU/Kg insulin bolus over 10 mins which was followed by continuous insulin infusion (4 mU/kg/min in gelofusine). Euglycemia (˜8-10 mM blood glucose) was maintained by a variable infusion of a 30% glucose solution.
Tail blood samples were collected during steady-state conditions (Ra=Rd) and at 80, 90, 100, 110, and 120 min for determination of Rd and Ra, as described above. At 120 mins, a 13 uCi bolus of [^14C]-2-deoxy-D-glucose (NEC495A250UC, PerkinElmer, MA) was injected into the jugular vein, and blood was sampled at 122, 125, 135, 145, and 155 min. […]

[3] = I.C.V. fluorosamine in mouse model of late-stage type-2 diabetes (HFHS plus low dose streptozotocin); assay type: in vivo; details: I.C.V. daily for 14 days, HFHS plus low dose streptozotocin mice
Experimental: Mice were maintained on a 12 h light-dark cycle in a temperature-controlled high-barrier facility with free access to food and water per NHMRC Australian Code of Practice for the Care and Use of Animals. C57BL/6J and Balb/C mice were sourced from the Animal Resources Centre, Australian, whereas Agrp-IRES-Cre (Strain #:012899), db/db (strain #: 000697), Npy-GFP (Strain #:006417), Pomc-GFP (Strain #:009593), LSL-Cas9 (Strain #:028551), NZO (Strain #:002105) mice were sourced from Jackson Laboratories, USA. […]
Metabolic measurements were undertaken in the Melbourne Mouse Metabolic Phenotyping Platform (The University of Melbourne, Australia). […] The areas under glucose excursion curves were determined and expressed as mmol/1×min. Fasted (12 h fast) plasma insulin or glucose levels were determined using a Rat/Mouse Insulin ELISA (EZRMI-13K, Merck Millipore, CA) or an Accu-Check glucometer respectively. The HOMA-IR was calculated using the equation [(glucose×insulin)/405]. Adiposity was measured using TD-NMR minispec (Bruker Optics Inc., Billerica, MA). […]

[4] = I.N. 1 mg/animal/day, 14 days, obese mice
[5] = I.N. highest dose (5 mg/animal/day), 14 days, obese mice

Structure (SMILES): CC(=O)NC1C(OC(C)=O)OC(COC(C)=O)[C@@H](F)C1OC(C)=O (stereo partly drawn) [fluorosamine, per-O-acetylated-4-F-N-acetylglucosamine]
- body weight lost at the end of the experiment [1, 4]: 16.32±1.41%
- mass of epiWAT, BAT and liver [1, 4]: decreased
- post-treatment fat mass decrease compared to pre-treatment mass [1, 4]: 12.59±2.29%
- day from which weight was robustly decreased ([1]; I.N. 1 mg/animal/day, obese mice): 7 days
- day on which 5 mg treatment began to significantly reduce more weight than 1 mg treatment ([1]; I.N. 5 mg vs 1 mg/animal/day, persisted to day 14): 9 days
- post-treatment fat mass decrease compared to pre-treatment mass ([1]; I.N. 5 mg/animal/day, 14 days, obese mice): 23.21±9.27%
- day from which weight was robustly decreased ([1]; I.N. 5 mg/animal/day, obese mice): 3 days
- body weight lost at the end of the experiment [1, 5]: 6.36±0.88%
- tissue mass (adipose tissues and liver) [1, 5]: remarkedly reduced tissue mass
- whole-body metabolic improvements ([1]; intranasal, 14 days, diet-induced obese mice, compared with I.C.V. delivery): recapitulated the whole-body metabolic improvements observed with intracerebroventricular delivery
- whole-body insulin sensitivity (GIR) in clamp [2]: enhancement of whole-body insulin sensitivity
- remission of metabolic disease (daily blood glucose, glucose tolerance) [3]: promote the remission of metabolic disease

Reference: patent US20260174677A1, “METHODS OF TREATING INSULIN RESISTANCE AND ASSOCIATED DISORDERS” (The University of Melboune, priority 2022, published 2026)
